Source: patent publication US20230047788A1, “COMPOSITIONS COMPRISING 5-CHOLESTEN-3, 25-DIOL, 3-SULFATE (25HC3S) OR PHARMACEUTICALLY ACCEPTABLE SALT THEREOF AND AT LEAST ONE CYCLIC OLIGOSACCHARIDE” (Virginia Commonwealth University, priority 2016, published 2023)
Read-outs that look alike come from different tables or passages of the source.

Columns and labels:
[1] = system: mice overdosed with APAP; assay: Mortality in mice overdosed with APAP (600 mg/kg); format: in vivo, C57BL/6J mice; conditions: APAP 600 mg/kg ip; 25 mg/kg 25HC3S iv 0.5 hours after APAP; 5 days after overdose
Procedure: The ability of 25HC3S to treat symptoms of APAP overdose was examined. 12-week-old male C57BL/6J mice were fasted overnight and injected (intraperitoneally) with APAP: 600 mg/kg (high dose) for mortality studies or 350 mg/kg (low dose) for liver function and gene studies. Control mice received only vehicle (20% (v/v) a propylene glycol, 4% (w/v) cyclodextrin (powdered hydroxypropyl beta cyclodextrin in sterile 10% (w/v) glucose.
A composition comprising 25 mg/kg of 25HC3S sodium salt in vehicle was administered intravenously to the experimental mice 0.5 hours after APAP administration. Mortality was monitored in the high dose mice. In the low dose mice, the liver function markers aspartate aminotransferase (AST), alanine aminotransferase (ALT), alkaline phosphatase (ALK) and lactate dehydrogenase (LDH), were measured in serum. Impacts on gene expression were determined by Quantitative Real-time PCR. Membrane potentials were measured using JC1 staining and flow cytometry.

[2] = dog, in vivo
Procedure: Injection routes of administration used were intramuscular, intravenous or subcutaneous. The following example is a representative injection study.
Beagle dogs (n=5/dose group) received a single intravenous bolus injection or a single subcutaneous injection. The parenteral solution that was tested included 25 mg/mL of 25HC3S sodium salt in vehicle (200 mg/mL hydroxypropyl betadex with 10 mM sodium phosphate buffers, in water). The intravenous dose level of 2.5 mg/kg was administered in a dose volume of 0.1 mL/kg whereas the subcutaneous injection dose level of 20 mg/kg was administered in a dose volume of 0.8 mL/kg. Whole blood samples were collected at pre-dose, 0.5, 1, 2, 4, 8, 12, 24, 32 and 48 hours (h) post dose and the resulting plasma samples underwent analyses to quantify 25HC3S levels. During the in-life period, animals were observed daily for mortality and moribundity with clinical examinations conducted daily.

[3] = Stability testing for 25HC3S sodium salt for injection, 30 mg/mL after constitution; format: physicochemical; conditions: for Degree of Coloration of Liquids: BY = brown-yellow
Procedure: Sterile water for injection, USP (6.14 kg) was added into a 10L stainless steel vessel. […] HPbCD, NF (1851.85 g) was added in small portions over 15 minutes with slow stirring into the beaker. The stirring was increased to 250-350 rpm for an additional minimum 30 minutes to form a clear solution. The solution was filtered through a 0.22 micron filter. Filtered vehicle (7 mL) was filled into 10 mL glass vials, which were sealed with 20 mm stoppers, and crimp sealed. The vehicle vials were sterilized with gamma irradiation at approximately 28-32 kGy.
25HC3S sodium salt was micronized by passing through a Fluid Energy Model 00 Jet-O-Mizer Jet Mill. Micronized drug substance (186 mg) was added into a 10 mL glass vial, sealed with 20 mm stoppers, and crimp sealed. The 25HC3S powder vials were sterilized with gamma irradiation at approximately 28-32 kGy
Sterile vehicle (6.0 mL) comprised of 250 mg/mL HPbCD and 10 mM phosphate buffer was added to a vial of 25HC3S micronized powder. The mixture was shaken for 15 minutes to prepare a solution resulting in a 25HC3S sodium salt concentration of 30 mg/mL (allowing for 3% dilution upon the dissolution of drug).
Stability data for 6 months at 2-8° C. to 40° C./75% RH for 25HC3S for injection, 30 mg/mL after constitution, are listed in Table 5. This lot of 25HC3S powder, and the vehicle used to constitute it, were gamma sterilized at approximately 28-32 kGy. The data supports a 12 month retest date when stored at 2-8° C.

Structure (SMILES): C[C@H](CCCC(C)(C)O)[C@H]1CC[C@H]2[C@@H]3CC=C4C[C@@H](OS(=O)(=O)[O-])CC[C@]4(C)[C@H]3CC[C@]12C.[Na+] [25HC3S, 5-cholesten-3, 25-diol, 3-sulfate]
- mice that had died [1]: one
- AUCall, Mean (SD) ([2]; iv): 489 (464) ng * hr/mL
- Cmax ([2]; iv): 439 ng/mL
- Tmax, Mean (SD) ([2]; iv): 0.5 (0) hr
- Cmax ([2]; iv, 2.5 mg/kg): 439 ng/mL
- mean AUClast ([2]; iv, 2.5 mg/kg): 478 ng·h/mL
- plasma levels at 8h ([2]; iv, 2.5 mg/kg): no observable levels in most animals (n=4)
- time point of maximal concentration ([2]; iv, 2.5 mg/kg): 0.5 h
- AUCall, Mean (SD) ([2]; sc): 19676 (3716) ng * hr/mL
- Cmax ([2]; sc): 3940 ng/mL
- Tmax, Mean (SD) ([2]; sc): 1.8 (1.3) hr
- observed bioavailability ([2]; sc): 0.7
- AUClast ([2]; sc, 20 mg/kg): 19503 ng·h/mL
- Cmax ([2]; sc, 20 mg/kg): 3936 ng/mL
- % Individual Unspecified Degradant RRT = 0.60 ([3]; 2-8°C, 0 months): 0.2%
- % Individual Unspecified Degradant RRT = 0.64 ([3]; 2-8°C, 0 months): 0.4%
- % Individual Unspecified Degradant RRT = 2.74 ([3]; 2-8°C, 0 months): 0.4%
- % Individual Unspecified Degradant RRT = 3.77 ([3]; 2-8°C, 0 months): 0.3%
- % Total Degradation Products ([3]; 2-8°C, 0 months): 2.5%
- % Water Content ([3]; 2-8°C, 0 months): 6.23%
- Appearance ([3]; 2-8°C, 0 months): White powder
- Assay (label strength of 30 mg/mL) ([3]; 2-8°C, 0 months): Mean: 98.7%
- Osmolality ([3]; 2-8°C, 0 months): 321 mmol/kg
- pH ([3]; 2-8°C, 0 months): 6.62
- Degree of Coloration of Liquids ([3]; 2-8°C, 0 months): BY6
- % Individual Unspecified Degradant RRT = 0.60 ([3]; 2-8°C, 3 months): 0.2%
- % Individual Unspecified Degradant RRT = 0.64 ([3]; 2-8°C, 3 months): 0.4%
- % Individual Unspecified Degradant RRT = 2.74 ([3]; 2-8°C, 3 months): 0.4%
- % Individual Unspecified Degradant RRT = 3.77 ([3]; 2-8°C, 3 months): 0.3%
- % Total Degradation Products ([3]; 2-8°C, 3 months): 2.8%
- % Water Content ([3]; 2-8°C, 3 months): 5.62%
- Assay (label strength of 30 mg/mL) ([3]; 2-8°C, 3 months): 96.7%
- Osmolality ([3]; 2-8°C, 3 months): 322 mmol/kg
- pH ([3]; 2-8°C, 3 months): 5.82
- % Individual Unspecified Degradant RRT = 0.60 ([3]; 2-8°C, 6 months): 0.3%
- % Individual Unspecified Degradant RRT = 0.64 ([3]; 2-8°C, 6 months): 0.4%
- % Individual Unspecified Degradant RRT = 2.74 ([3]; 2-8°C, 6 months): 0.4%
- % Individual Unspecified Degradant RRT = 3.77 ([3]; 2-8°C, 6 months): 0.3%
- % Total Degradation Products ([3]; 2-8°C, 6 months): 3.0%
- % Water Content ([3]; 2-8°C, 6 months): 6.13%
- Assay (label strength of 30 mg/mL) ([3]; 2-8°C, 6 months): 100.0%
- Osmolality ([3]; 2-8°C, 6 months): 323 mmol/kg
- pH ([3]; 2-8°C, 6 months): 5.34
- Degree of Coloration of Liquids ([3]; 2-8°C, 6 months): BY6
- % Individual Unspecified Degradant RRT = 0.60 ([3]; 25°C/60% RH, 1 month): 0.3%
- % Individual Unspecified Degradant RRT = 0.64 ([3]; 25°C/60% RH, 1 month): 0.4%
- % Individual Unspecified Degradant RRT = 2.74 ([3]; 25°C/60% RH, 1 month): 0.4%
- % Individual Unspecified Degradant RRT = 3.77 ([3]; 25°C/60% RH, 1 month): 0.3%
- % Total Degradation Products ([3]; 25°C/60% RH, 1 month): 2.9%
- % Water Content ([3]; 25°C/60% RH, 1 month): 5.29%
- Assay (label strength of 30 mg/mL) ([3]; 25°C/60% RH, 1 month): 98.3%
- Osmolality ([3]; 25°C/60% RH, 1 month): 330 mmol/kg
- pH ([3]; 25°C/60% RH, 1 month): 5.18
- % Individual Unspecified Degradant RRT = 0.60 ([3]; 25°C/60% RH, 3 months): 0.3%
- % Individual Unspecified Degradant RRT = 0.64 ([3]; 25°C/60% RH, 3 months): 0.4%
- % Individual Unspecified Degradant RRT = 2.74 ([3]; 25°C/60% RH, 3 months): 0.4%
- % Individual Unspecified Degradant RRT = 3.77 ([3]; 25°C/60% RH, 3 months): 0.3%
- % Total Degradation Products ([3]; 25°C/60% RH, 3 months): 2.9%
- % Water Content ([3]; 25°C/60% RH, 3 months): 5.40%
- Assay (label strength of 30 mg/mL) ([3]; 25°C/60% RH, 3 months): 96.0%
- Osmolality ([3]; 25°C/60% RH, 3 months): 322 mmol/kg
- Degree of Coloration of Liquids ([3]; 25°C/60% RH, 3 months): BY5
- % Individual Unspecified Degradant RRT = 0.60 ([3]; 25°C/60% RH, 6 months): 0.4%
- % Individual Unspecified Degradant RRT = 0.64 ([3]; 25°C/60% RH, 6 months): 0.4%
- % Individual Unspecified Degradant RRT = 2.74 ([3]; 25°C/60% RH, 6 months): 0.4%
- % Individual Unspecified Degradant RRT = 3.77 ([3]; 25°C/60% RH, 6 months): 0.3%
- % Total Degradation Products ([3]; 25°C/60% RH, 6 months): 3.0%
- % Water Content ([3]; 25°C/60% RH, 6 months): 5.65%
- Assay (label strength of 30 mg/mL) ([3]; 25°C/60% RH, 6 months): 96.2%
- Osmolality ([3]; 25°C/60% RH, 6 months): 319 mmol/kg
- Degree of Coloration of Liquids ([3]; 25°C/60% RH, 6 months): BY5
- % Individual Unspecified Degradant RRT = 0.60 ([3]; 40°C/75% RH, 1 month): 0.3%
- % Individual Unspecified Degradant RRT = 0.64 ([3]; 40°C/75% RH, 1 month): 0.4%
- % Individual Unspecified Degradant RRT = 2.74 ([3]; 40°C/75% RH, 1 month): 0.4%
- % Individual Unspecified Degradant RRT = 3.77 ([3]; 40°C/75% RH, 1 month): 0.3%
- % Total Degradation Products ([3]; 40°C/75% RH, 1 month): 2.9%
- % Water Content ([3]; 40°C/75% RH, 1 month): 5.03%
- Assay (label strength of 30 mg/mL) ([3]; 40°C/75% RH, 1 month): 95.8%
- Osmolality ([3]; 40°C/75% RH, 1 month): 330 mmol/kg
- % Individual Unspecified Degradant RRT = 0.60 ([3]; 40°C/75% RH, 3 months): 0.3%
- % Individual Unspecified Degradant RRT = 0.64 ([3]; 40°C/75% RH, 3 months): 0.4%
- % Individual Unspecified Degradant RRT = 2.74 ([3]; 40°C/75% RH, 3 months): 0.5%
- % Individual Unspecified Degradant RRT = 3.77 ([3]; 40°C/75% RH, 3 months): 0.4%
- % Total Degradation Products ([3]; 40°C/75% RH, 3 months): 3.3%
- % Water Content ([3]; 40°C/75% RH, 3 months): 5.33%
- Assay (label strength of 30 mg/mL) ([3]; 40°C/75% RH, 3 months): 96.2%
- Osmolality ([3]; 40°C/75% RH, 3 months): 327 mmol/kg
- % Individual Unspecified Degradant RRT = 0.60 ([3]; 40°C/75% RH, 6 months): 0.4%
- % Individual Unspecified Degradant RRT = 0.64 ([3]; 40°C/75% RH, 6 months): 0.5%
- % Individual Unspecified Degradant RRT = 2.74 ([3]; 40°C/75% RH, 6 months): 0.4%
- % Individual Unspecified Degradant RRT = 3.77 ([3]; 40°C/75% RH, 6 months): 0.3%
- % Total Degradation Products ([3]; 40°C/75% RH, 6 months): 2.8%
- % Water Content ([3]; 40°C/75% RH, 6 months): 6.34%
- Assay (label strength of 30 mg/mL) ([3]; 40°C/75% RH, 6 months): 97.1%
- Osmolality ([3]; 40°C/75% RH, 6 months): 324 mmol/kg
- retest date supported by the data ([3]; stored at 2-8°C): 12 month
